From PubChem BioAssay (NCI) come the findings set out here.

Assay in all cases: NCI anticancer screen, dose series, 48 h
Assay [1] has as its system TK-10 renal.
Assay [2] relates to HOP-92 NSCLC.
Assay [3] relates to SK-MEL-28 melanoma.
For assay [4], the system named is HOP-62 NSCLC.
The test system of assay [5] is MDA-MB-231 breast.
Assay [6] relates to SR leukemia.

The structures appear in SMILES notation. Where “and” joins values, the source holds several entries; their conditions need not be identical. Equal entries are not always repeated.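 All cell lines were grown in 96-well plates and treated with compound for 48 hours. The concentration for 50% growth inhibition is given as GI50. TGI is the concentration that stops growth completely.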 Where a SMILES comes first, the peptide text is derived from it. The star is where a group is joined. Boc = CC(C)(C)OC(=O)*

In the case of `COc1nc(N)nc2c1n(C)c[n+]2C`, the TGI in assay [1], in assay [2], in assay [3], in assay [4] and in assay [5] was greater than 100 µM each time.

Regarding `CC(C)C(=O)CC(Sc1ccc(N)cc1)c1ccccc1` (stereo not given), the TGI is greater than 100 µM in assay [1], greater than 100 µM in assay [3], 83.9 µM in assay [4] and 60.5 µM in assay [5].

Turning to `CCOC(=O)C12C3CCC1C2C(=O)C3` (stereo not given), the TGI in assay [1], in assay [3], in assay [4], in assay [5] and in assay [6] was greater than 100 µM each time.

In the case of `COc1cc(/C=C2\N=C(c3ccccc3)N(c3ccc(S(=O)(=O)Nc4nccs4)cc3)C2=O)ccc1O`, the TGI in assay [1], in assay [2], in assay [4] and in assay [6] was greater than 100 µM each time.

`[N-]=[N+]=NC1(c2ccccc2)C(=O)c2cccc3c4ccccc4n(c23)C1=O` (stereo not given): the TGI in assay [1], in assay [3], in assay [4] and in assay [5] was greater than 100 µM throughout.

On to `COC(=O)C1=C(C(=O)OC)C2(c3ccccc3)c3ccccc3C(=O)C1N2C1CCCCC1` (stereo not given), for which the TGI in assay [1], in assay [2], in assay [3], in assay [4] and in assay [5] was greater than 100 µM in each case.

On to `CC1CC/C(=C\c2ccc(Cl)cc2)C(=O)/C1=C\c1ccc(Cl)cc1` (stereo not given), for which the TGI was 79.8 µM in assay [1]; greater than 100 µM in assay [2]; greater than 100 µM in assay [3]; 57.9 µM in assay [4]; greater than 100 µM in assay [5].

Turning to `CCOC(=O)c1nc2cc(F)c(F)cc2nc1NCc1cc(OC)c(OC)c(OC)c1`, the TGI in assay [1], in assay [2], in assay [3], in assay [4] and in assay [6] was greater than 100 µM in each case.

Turning to `O=c1ccc(-c2ccc(-n3ccnc3)cc2)nn1CCO`, the TGI in assay [1], in assay [2], in assay [3], in assay [4] and in assay [6] was greater than 100 µM in each case.

As to `CCC(C)C1=C(O)[N+]2([O-])Oc3ccc(-c4c(O)c(O)c(-c5ccc(O)cc5)c(OC(C)=O)c4OC(C)=O)cc3OC2(C(C)CC)C(=O)N1O` (stereo not given), the TGI in assay [1], in assay [3], in assay [5] and in assay [6] was greater than 50 µM each time.

For `Nc1ccc2c(c1)N(C(=O)CCCC(=O)N1CC(CCl)c3ccc(N)cc31)CC2CCl` (stereo not given), the TGI in assay [1] is greater than 48.1 µM; in assay [2] it was greater than 50 µM; in assay [3], greater than 14.4 µM; in assay [4] it was 8.94 µM; in assay [5], 8.76 µM.

`O=S(=O)(O)c1cc(S(=O)(=O)O)c2c(N=Nc3ccccc3)c(O)ccc2c1`: the TGI in assay [1], in assay [2], in assay [3], in assay [4] and in assay [5] was greater than 100 µM throughout.

Regarding `CCOC(=O)Nn1cnnc1Cc1ccccc1`, the TGI in assay [1], in assay [2], in assay [4], in assay [5] and in assay [6] was greater than 100 µM in each case.

As to `c1ccc2nc3c(nc2c1)sc1nc2ccccc2n13`, the TGI in assay [1], in assay [2], in assay [5] and in assay [6] was greater than 100 µM in each case.

With `COc1cc2c(cc1C)NC(=O)/C2=C\c1cccnc1`, the TGI in assay [1] was 31.7 µM; in assay [2], 59.5 µM; in assay [3], greater than 100 µM; in assay [4], 51.9 µM.

In the case of `CCCCn1c(C)c(C)c2c1NN=C(C#N)S2(=O)=O`, the TGI in assay [1], in assay [3], in assay [4], in assay [5] and in assay [6] was greater than 100 µM throughout.

Turning to `O=S(=O)(O)c1cccc2ccc(O)c(N=Nc3ccc(S(=O)(=O)c4ccc(N=Nc5c(O)ccc6cccc(S(=O)(=O)O)c56)cc4)cc3)c12`, the TGI in assay [1], in assay [2], in assay [3], in assay [4] and in assay [5] was greater than 100 µM in each case.

On to `O=C1c2scc(-c3ccc(F)cc3)c2-n2cccc21`, for which the TGI was greater than 100 µM in assay [1]; greater than 100 µM in assay [3]; 64.4 µM in assay [4]; greater than 100 µM in assay [5]; 44 µM in assay [6].

In the case of `CC[C@@]1(O)C(=O)OCc2c1cc1n(c2=O)Cc2c-1nc1ccccc1c2C=Nc1ccc(N[C@@H]2c3cc4c(cc3[C@@H](c3cc(OC)c(O)c(OC)c3)[C@H]3C(=O)OC[C@@H]32)OCO4)cc1`, the GI50 in assay [1] is 2.16 µM and 0.815 µM; in assay [2], 0.0258 µM. Moreover, the TGI in assay [1] was 28.5 µM and 3.33 µM; in assay [3], greater than 100 µM; in assay [5], 18.4 µM and 4.06 µM; in assay [6], 28.2 µM.

As to `COC(=O)C(Cc1c[nH]c2ccccc12)NC(=O)C(Cc1c[nH]c2ccccc12)NC(=O)C(Cc1c[nH]c2ccccc12)NC(=O)C(Cc1c[nH]c2ccccc12)NC(=O)C(Cc1c[nH]c2ccccc12)NC(=O)OC(C)(C)C` (stereo not given) (Boc-WWWWW-OMe; configuration not given here), the TGI in assay [1], in assay [3], in assay [4], in assay [5] and in assay [6] was greater than 100 µM each time.

With `COc1ccc(-c2c(C#N)c(N)n(C3OCC(O)C(O)C3O)c(=S)c2C#N)cc1` (stereo not given), the TGI in assay [1], in assay [3], in assay [4], in assay [5] and in assay [6] was greater than 100 µM in each case.

For the compound `COc1ccc(-c2cc(-c3ccccc3)c3c(n2)-c2ccccc2NC(=O)C3)cc1`, the TGI in assay [1], in assay [2], in assay [3], in assay [4] and in assay [5] was greater than 100 µM each time.

In the case of `C[C@@H]1C(=O)O[C@@H]2C[C@@]1(C)[C@@H]1C(=O)C3(O)OC14C2(C)OC(=O)[C@@]4(O)CCC1C3C(O)C=C2CC=CC(=O)[C@@]21C` (stereo not given in full), the TGI is greater than 100 µM in assay [1]; 54.4 µM in assay [3]; greater than 100 µM in assay [4]; greater than 100 µM in assay [5]; 47.8 µM in assay [6].
